Earlier results, collected in patent US10010615B2 (KemPharm, Inc., priority 2009, dated 2018).

Experiments:
[1] = test system: leptin; details: chronic oral administration for 6 weeks
[2] = biological target: human NET (Homo sapiens, UniProt P23975); details: relative to quetiapine
Sequence of human NET (P23975 whole entry): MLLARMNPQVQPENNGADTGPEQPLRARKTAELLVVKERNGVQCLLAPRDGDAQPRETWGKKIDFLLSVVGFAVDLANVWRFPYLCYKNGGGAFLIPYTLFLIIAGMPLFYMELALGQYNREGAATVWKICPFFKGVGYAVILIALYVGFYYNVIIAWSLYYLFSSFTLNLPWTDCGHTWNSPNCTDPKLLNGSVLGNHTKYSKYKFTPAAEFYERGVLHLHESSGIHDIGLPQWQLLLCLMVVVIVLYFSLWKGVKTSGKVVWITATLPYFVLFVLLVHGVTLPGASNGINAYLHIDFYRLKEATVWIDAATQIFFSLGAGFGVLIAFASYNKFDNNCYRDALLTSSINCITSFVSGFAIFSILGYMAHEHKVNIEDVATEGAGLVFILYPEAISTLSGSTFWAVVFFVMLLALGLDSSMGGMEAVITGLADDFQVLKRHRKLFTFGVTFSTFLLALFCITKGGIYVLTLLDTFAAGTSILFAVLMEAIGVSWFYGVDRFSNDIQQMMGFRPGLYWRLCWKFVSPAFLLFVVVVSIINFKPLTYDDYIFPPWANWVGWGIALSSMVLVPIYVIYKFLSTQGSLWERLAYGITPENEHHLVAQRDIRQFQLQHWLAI

Row | SMILES | increase in leptin release [1] | higher avidity for inhibiting human NET than quetiapine [2]
1 | OCCOCCN1CCN(C2=Nc3ccccc3Sc3ccccc32)CC1 [quetiapine, 2-(2-(4-(dibenzo[b,f][1,4]thiazepin-11-yl)piperazin-1-yl)ethoxy)ethanol] | about 37% | 
2 | c1ccc2c(c1)N=C(N1CCNCC1)c1ccccc1S2 [N-desalkyl-quetiapine, 4-(dibenzo[b,f][1,4]thiazepin-11-yl)piperazine] |  | about 100 fold
